Drawing on publication PMC5564600 (Oncotarget, 2017), this text covers remaining activity for four compounds.

What all share (test): biochemical
What all share (type): binding

Test [1] deals with T1, panel of 442 kinases (Homo sapiens, UniProt P22694).
T1 construct: purchased Ambit Biosciences (scanMAXX KINOMEscan)
The following applies: kinase PKAC-beta; for remaining activity at 1 µM: read-out: PKAC-beta (% of control at 1 µM).

Test [2] concerns the target T2, panel of 442 kinases (Homo sapiens, UniProt Q15303).
T2 construct: purchased Ambit Biosciences (scanMAXX KINOMEscan)
The following applies: ERBB4; for remaining activity at 1 µM: read-out: % of control at 1 µM.

Test [3] deals with T3, panel of 442 kinases (Homo sapiens, UniProt Q8IYT8).
T3 construct: purchased Ambit Biosciences (scanMAXX KINOMEscan)
T3 sequence (Q8IYT8 1-1036): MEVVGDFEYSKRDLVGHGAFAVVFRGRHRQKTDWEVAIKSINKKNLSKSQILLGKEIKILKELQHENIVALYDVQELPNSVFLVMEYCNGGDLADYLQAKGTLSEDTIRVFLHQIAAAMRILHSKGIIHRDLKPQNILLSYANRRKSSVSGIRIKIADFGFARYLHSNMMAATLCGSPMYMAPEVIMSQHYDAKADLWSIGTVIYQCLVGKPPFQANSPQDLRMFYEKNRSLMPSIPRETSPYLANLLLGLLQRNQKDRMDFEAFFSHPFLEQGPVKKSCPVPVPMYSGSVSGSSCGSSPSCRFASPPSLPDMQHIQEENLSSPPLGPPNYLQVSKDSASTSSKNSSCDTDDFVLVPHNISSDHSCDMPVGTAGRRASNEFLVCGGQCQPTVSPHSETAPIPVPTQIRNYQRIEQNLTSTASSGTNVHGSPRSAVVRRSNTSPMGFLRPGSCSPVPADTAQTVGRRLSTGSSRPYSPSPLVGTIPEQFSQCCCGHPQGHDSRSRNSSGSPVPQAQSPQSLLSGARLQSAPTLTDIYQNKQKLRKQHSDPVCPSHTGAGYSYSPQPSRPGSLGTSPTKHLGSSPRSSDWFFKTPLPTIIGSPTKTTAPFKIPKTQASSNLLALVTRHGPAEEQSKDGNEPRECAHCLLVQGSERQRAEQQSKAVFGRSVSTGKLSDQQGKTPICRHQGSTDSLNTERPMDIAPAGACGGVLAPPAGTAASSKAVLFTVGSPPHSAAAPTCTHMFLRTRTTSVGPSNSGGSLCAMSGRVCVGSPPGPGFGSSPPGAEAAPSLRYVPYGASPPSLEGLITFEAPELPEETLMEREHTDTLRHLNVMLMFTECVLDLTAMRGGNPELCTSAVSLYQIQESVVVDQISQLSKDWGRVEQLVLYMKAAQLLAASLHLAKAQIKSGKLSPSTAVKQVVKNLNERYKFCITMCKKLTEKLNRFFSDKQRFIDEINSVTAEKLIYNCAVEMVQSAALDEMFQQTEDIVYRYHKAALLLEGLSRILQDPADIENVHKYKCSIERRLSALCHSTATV
The following applies: kinase ULK2; for remaining activity at 1 µM: read-out: ULK2 (% of control at 1 µM).

Test [4] deals with T4, panel of 442 kinases (Homo sapiens, UniProt P42684).
T4 construct: purchased Ambit Biosciences (scanMAXX KINOMEscan)
The following applies: ABL2; for remaining activity at 1 µM: read-out: % of control at 1 µM.

The target of test [5] is T5, panel of 442 kinases (Homo sapiens, UniProt Q02750).
T5 construct: purchased Ambit Biosciences (scanMAXX KINOMEscan)
The conditions noted are these: kinase MEK1; for remaining activity at 1 µM: read-out: % of control at 1 µM.

In test [6] the target is T6, panel of 442 kinases (Homo sapiens, UniProt Q13976).
T6 construct: purchased Ambit Biosciences (scanMAXX KINOMEscan)
T6 sequence (Q13976 1-671): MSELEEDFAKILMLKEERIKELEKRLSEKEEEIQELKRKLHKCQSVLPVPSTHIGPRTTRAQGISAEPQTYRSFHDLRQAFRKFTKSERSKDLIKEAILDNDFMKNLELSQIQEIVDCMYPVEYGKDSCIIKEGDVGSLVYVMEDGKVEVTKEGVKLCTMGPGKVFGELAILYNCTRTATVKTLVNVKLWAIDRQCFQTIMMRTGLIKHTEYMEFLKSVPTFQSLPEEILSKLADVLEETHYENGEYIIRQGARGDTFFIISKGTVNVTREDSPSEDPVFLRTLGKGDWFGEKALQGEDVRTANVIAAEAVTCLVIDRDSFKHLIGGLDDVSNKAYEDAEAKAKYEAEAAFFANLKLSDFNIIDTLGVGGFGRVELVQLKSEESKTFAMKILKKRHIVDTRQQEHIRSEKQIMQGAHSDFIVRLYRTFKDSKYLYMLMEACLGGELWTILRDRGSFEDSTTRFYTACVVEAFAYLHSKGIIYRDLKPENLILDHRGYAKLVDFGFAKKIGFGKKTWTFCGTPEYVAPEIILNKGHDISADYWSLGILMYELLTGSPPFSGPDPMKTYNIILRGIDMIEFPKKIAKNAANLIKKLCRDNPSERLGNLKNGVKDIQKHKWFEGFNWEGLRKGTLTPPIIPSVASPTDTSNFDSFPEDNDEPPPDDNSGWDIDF
The following applies: kinase PRKG1; for remaining activity at 1 µM: read-out: PRKG1 (% of control at 1 µM).

Where [7] appears, read: 10 µM, read-out: % of control at 10 µM.

Structures are written as SMILES.

T5 sequence (Q02750 whole entry): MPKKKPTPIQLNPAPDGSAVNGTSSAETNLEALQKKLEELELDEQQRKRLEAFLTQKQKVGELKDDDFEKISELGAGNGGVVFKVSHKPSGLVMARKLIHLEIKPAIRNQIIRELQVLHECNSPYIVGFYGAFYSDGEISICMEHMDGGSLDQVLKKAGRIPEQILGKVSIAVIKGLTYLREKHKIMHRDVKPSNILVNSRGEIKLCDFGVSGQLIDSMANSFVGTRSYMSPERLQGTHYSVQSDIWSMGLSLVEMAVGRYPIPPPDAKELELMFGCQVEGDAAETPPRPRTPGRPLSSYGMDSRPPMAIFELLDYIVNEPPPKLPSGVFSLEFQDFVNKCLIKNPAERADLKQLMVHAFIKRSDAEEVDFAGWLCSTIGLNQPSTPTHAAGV
T4 sequence (P42684 whole entry): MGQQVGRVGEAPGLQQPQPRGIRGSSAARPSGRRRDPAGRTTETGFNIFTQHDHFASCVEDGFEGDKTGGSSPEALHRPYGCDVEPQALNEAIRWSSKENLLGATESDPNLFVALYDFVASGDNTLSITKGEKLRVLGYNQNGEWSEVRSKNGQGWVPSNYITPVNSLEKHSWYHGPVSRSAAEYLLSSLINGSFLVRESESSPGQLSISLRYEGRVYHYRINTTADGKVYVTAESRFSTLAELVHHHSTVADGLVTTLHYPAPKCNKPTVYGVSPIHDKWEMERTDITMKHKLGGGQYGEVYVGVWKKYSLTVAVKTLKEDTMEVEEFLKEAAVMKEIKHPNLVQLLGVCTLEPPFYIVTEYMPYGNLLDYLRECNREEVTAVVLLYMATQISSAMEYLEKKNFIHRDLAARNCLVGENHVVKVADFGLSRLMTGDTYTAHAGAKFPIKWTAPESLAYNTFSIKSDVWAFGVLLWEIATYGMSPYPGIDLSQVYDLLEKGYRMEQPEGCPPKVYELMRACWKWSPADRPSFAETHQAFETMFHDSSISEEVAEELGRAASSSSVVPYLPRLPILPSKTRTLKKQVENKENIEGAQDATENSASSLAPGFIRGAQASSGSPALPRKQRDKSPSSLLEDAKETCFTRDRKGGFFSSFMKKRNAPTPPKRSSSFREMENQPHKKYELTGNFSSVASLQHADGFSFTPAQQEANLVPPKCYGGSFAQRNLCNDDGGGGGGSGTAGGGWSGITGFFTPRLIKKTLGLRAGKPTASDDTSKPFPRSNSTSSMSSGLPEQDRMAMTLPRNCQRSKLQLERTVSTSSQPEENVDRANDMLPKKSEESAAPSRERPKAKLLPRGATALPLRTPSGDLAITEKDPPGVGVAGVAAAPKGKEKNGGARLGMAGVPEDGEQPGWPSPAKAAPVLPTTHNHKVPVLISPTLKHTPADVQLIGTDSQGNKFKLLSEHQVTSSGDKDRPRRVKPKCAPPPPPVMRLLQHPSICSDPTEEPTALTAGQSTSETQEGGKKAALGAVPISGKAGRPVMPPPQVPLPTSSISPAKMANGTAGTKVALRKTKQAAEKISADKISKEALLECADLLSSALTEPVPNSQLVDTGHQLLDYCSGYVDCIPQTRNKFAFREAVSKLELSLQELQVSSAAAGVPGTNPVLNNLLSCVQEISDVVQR
T2 sequence (Q15303 26-1308): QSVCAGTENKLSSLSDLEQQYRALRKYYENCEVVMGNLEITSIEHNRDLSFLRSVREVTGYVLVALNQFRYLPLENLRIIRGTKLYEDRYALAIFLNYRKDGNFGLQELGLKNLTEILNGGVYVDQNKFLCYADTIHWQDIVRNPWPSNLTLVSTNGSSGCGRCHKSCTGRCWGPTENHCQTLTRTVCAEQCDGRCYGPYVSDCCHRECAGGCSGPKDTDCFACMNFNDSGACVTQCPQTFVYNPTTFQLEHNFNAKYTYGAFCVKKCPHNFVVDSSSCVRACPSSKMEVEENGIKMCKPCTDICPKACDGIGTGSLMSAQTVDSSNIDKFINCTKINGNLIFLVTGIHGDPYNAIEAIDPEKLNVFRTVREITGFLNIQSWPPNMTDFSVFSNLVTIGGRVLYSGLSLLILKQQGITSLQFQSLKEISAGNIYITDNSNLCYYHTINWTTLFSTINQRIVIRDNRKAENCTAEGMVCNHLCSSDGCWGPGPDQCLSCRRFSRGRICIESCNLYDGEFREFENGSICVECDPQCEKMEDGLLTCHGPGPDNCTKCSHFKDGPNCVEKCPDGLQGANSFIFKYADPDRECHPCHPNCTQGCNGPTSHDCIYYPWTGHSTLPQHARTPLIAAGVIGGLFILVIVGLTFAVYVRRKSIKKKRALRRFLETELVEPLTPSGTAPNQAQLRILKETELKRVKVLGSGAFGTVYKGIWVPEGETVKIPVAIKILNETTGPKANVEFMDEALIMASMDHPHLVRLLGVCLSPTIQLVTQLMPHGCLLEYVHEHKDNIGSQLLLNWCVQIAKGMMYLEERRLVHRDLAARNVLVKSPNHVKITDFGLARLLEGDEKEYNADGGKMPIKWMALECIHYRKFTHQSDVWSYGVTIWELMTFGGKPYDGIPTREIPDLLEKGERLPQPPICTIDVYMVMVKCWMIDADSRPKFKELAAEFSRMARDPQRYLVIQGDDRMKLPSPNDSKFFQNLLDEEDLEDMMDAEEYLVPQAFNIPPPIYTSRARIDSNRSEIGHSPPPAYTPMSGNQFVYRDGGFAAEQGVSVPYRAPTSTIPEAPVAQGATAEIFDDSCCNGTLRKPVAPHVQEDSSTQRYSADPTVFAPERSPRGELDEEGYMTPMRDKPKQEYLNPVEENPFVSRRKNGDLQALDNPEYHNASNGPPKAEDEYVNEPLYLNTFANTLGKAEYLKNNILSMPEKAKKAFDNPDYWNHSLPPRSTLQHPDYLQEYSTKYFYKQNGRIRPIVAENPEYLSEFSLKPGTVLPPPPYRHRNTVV

`Nc1cc(C(F)(F)F)c(-c2cc(N3CCOCC3)nc(N3CCOCC3)n2)cn1` [Buparlisib]: the remaining activity at 1 µM was 79% on panel of 442 kinases [1]; 69% at panel of 442 kinases [2]; 86% on panel of 442 kinases [3]; 100% at panel of 442 kinases [4]; 100% on panel of 442 kinases [5]; 77% at panel of 442 kinases [6]. Also, the remaining activity at 10 µM on panel of 442 kinases [1] (10 µM, read-out: PKAC-beta (% of control at 10 µM)) was 100%; on panel of 442 kinases [2] (setting [7]) it was 100%; at panel of 442 kinases [3] (10 µM, read-out: ULK2 (% of control at 10 µM)) it was 100%; on panel of 442 kinases [4] (setting [7]) it was 100%; on panel of 442 kinases [5] (setting [7]), 100%; on panel of 442 kinases [6] (10 µM, read-out: PRKG1 (% of control at 10 µM)), 100%.
Take `Cn1c(=O)n(-c2ccc(C(C)(C)C#N)cc2)c2c3cc(-c4cnc5ccccc5c4)ccc3ncc21` [Dactolisib, 2-methyl-2-[4-(3-methyl-2-oxo-8-quinolin-3-yl-2,3-dihydroimidazo[4,5-c]quinolin-1-yl)-phenyl] propionitrile]: the remaining activity at 1 µM on panel of 442 kinases [1] worked out at 90%; at panel of 442 kinases [2], 100%; at panel of 442 kinases [3] it was 93%; at panel of 442 kinases [4], 100%; on panel of 442 kinases [5], 94%; at panel of 442 kinases [6], 95%.
As for `FC(F)c1nc2ccccc2n1-c1nc(N2CCOCC2)nc(N2CCOCC2)n1` [ZSTK474, 2-(difluoromethyl)-1-[4,6-di(4-morpholinyl)-1,3,5-triazin-2-yl]-1H-benzimidazole], the remaining activity at 1 µM at panel of 442 kinases [1], at panel of 442 kinases [2], at panel of 442 kinases [3], at panel of 442 kinases [4], on panel of 442 kinases [5] and at panel of 442 kinases [6] was 100% in each case.
Take `COc1ncc(-c2ccc3nccc(-c4ccnnc4)c3c2)cc1NS(=O)(=O)c1ccc(F)cc1F` [Omipalisib]: the remaining activity at 1 µM at panel of 442 kinases [1], at panel of 442 kinases [2], at panel of 442 kinases [3], on panel of 442 kinases [4], on panel of 442 kinases [5] and on panel of 442 kinases [6] was 100% in each case.
